≈ marks a conversion by molar mass, not a printed value. Calls of active or inactive are those of the source. No cut-off for these calls is given here.
How the values were obtained:
Cholinesterase [1] = target: T1, Cholinesterase (Homo sapiens, UniProt P06276)
Description: Inhibition of human BChE using butyrylthiocholineiodide as substrate preincubated for 20 mins followed by substrate addition and measured every 30 sec for 3 mins by DTNB-based UV analysis

Cannabinoid receptor 2 [2] = target: T2, Cannabinoid receptor 2 (Homo sapiens, UniProt P34972); test: Binding affinity to human CB2 receptor expressed in HEK cells at 10 uM relative to control; format: cell-based
physchem = conditions: PBS buffer
Description: (§1) Solubility of the compound in PBS buffer incubated overnight at room temperature by HPLC based continuous shake-flask method

Acetylcholinesterase [3] = target: T3, Acetylcholinesterase (Homo sapiens, UniProt P22303); test: Inhibition of human AChE using acetylthiocholine iodide as substrate at 10 uM preincubated for 20 mins followed by substrate addition and measured every 30 sec for 3 mins by DTNB-based UV analysis relative to control; conditions: time 23.0 min
T3 sequence (P22303 whole entry): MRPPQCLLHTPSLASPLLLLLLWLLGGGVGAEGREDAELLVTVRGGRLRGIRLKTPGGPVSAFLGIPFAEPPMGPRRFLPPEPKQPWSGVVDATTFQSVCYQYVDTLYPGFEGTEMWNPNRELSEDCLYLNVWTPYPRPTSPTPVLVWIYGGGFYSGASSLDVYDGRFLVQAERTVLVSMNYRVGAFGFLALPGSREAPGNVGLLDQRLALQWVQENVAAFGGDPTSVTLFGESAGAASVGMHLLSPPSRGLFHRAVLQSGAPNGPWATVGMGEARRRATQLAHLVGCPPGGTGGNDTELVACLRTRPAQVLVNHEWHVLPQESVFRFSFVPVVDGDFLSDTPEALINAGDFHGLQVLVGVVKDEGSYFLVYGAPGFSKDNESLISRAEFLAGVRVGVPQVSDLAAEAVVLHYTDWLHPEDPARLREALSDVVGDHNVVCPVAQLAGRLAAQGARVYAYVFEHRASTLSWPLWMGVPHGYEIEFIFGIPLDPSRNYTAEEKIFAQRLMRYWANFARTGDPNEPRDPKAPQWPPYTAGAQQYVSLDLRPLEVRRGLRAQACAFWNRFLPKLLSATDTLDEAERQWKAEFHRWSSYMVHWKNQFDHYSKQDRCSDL

[4] = buffer
Description: as §1

Acetylcholinesterase [5] = target: T3, Acetylcholinesterase
Description: Inhibition of human AChE using acetylthiocholine iodide as substrate preincubated for 20 mins followed by substrate addition and measured every 30 sec for 3 mins by DTNB-based UV analysis

Cannabinoid receptor 2 [6] = target: T2, Cannabinoid receptor 2; test: Displacement of [3H]CP55940 from human CB2 receptor expressed in HEK cells incubated for 3 hrs by competitive assay; format: cell-based
Mus musculus [7] = test: Anti-alzheimer activity against amyloid beta 25-35 induced learning impairments in Swiss mouse assessed as attenuation of long-term memory at 0.03 mg/kg, ip administered for 7 days and measured on day 10 by passive avoidance test; format: functional, organism-based; conditions: time 10.0 day
[8] = Neurotoxicity against mouse HT-22 cells assessed as cell viability at 0.75 to 25 uM by MTT assay; format: toxicity, cell-based; conditions: ht-22, 25 µM, dose 0.75-25 µM
Cholinesterase [9] = target: T1, Cholinesterase; test: Pseudo-irreversible inhibition of human BChE assessed as decarbamylation of enzyme by measuring rate constant k4 incubated for 1 hrs
Cholinesterase [10] = target: T1, Cholinesterase; conditions: time 1.0 hrs
Cholinesterase [11] = target: T1, Cholinesterase; test: Pseudo-irreversible inhibition of human BChE using butyrylthiocholineiodide as substrate assessed as equilibrium constant Kc preincubated for 20 mins followed by substrate addition and measured every 30 sec for 3 mins by DTNB-based UV analysis; conditions: time 23.0 min
Mus musculus [12] = test: Anti-alzheimer activity against amyloid beta 25-35 induced learning impairments in Swiss mouse assessed as attenuation of spatial working memory at 0.03 mg/kg, ip administered for 7 days and measured on day 8 by Y-maze test; format: functional, organism-based; conditions: time 8.0 day
Cholinesterase [13] = target: T1, Cholinesterase; test: Pseudo-irreversible inhibition of human BChE using butyrylthiocholineiodide as substrate assessed as rate constant k3 preincubated for 20 mins followed by substrate addition and measured every 30 sec for 3 mins by DTNB-based UV analysis; conditions: time 23.0 min
[14] = Neurotoxicity against mouse HT-22 cells assessed as cell viability at 1 to 25 uM by MTT assay; format: toxicity, cell-based; conditions: ht-22, 25 µM, dose 1-25 µM

T2 sequence (P34972 whole entry): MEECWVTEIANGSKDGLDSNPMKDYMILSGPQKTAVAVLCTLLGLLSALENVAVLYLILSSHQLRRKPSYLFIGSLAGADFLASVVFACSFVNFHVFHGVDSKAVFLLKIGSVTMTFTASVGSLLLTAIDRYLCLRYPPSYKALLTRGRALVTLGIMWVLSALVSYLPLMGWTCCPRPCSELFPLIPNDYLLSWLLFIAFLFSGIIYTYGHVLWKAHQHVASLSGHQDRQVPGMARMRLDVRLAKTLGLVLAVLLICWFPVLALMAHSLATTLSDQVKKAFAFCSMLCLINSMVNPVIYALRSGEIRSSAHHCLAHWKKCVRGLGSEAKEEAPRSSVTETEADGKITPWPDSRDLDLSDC
T1 sequence (P06276 whole entry): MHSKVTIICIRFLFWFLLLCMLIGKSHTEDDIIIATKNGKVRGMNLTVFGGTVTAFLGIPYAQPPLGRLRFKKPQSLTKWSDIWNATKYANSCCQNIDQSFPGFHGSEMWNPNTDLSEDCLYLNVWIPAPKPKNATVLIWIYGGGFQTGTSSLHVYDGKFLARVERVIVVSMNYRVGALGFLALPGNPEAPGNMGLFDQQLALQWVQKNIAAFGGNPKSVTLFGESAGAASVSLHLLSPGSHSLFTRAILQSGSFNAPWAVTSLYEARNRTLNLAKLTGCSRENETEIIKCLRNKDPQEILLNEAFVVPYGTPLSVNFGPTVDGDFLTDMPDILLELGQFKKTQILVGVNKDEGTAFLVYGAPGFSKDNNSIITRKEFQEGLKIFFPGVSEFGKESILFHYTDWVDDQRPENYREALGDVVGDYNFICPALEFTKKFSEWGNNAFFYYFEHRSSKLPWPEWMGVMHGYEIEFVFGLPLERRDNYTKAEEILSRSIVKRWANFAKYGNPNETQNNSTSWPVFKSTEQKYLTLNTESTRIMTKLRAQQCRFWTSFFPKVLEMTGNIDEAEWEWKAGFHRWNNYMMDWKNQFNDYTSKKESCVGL

SMILES | IC50 (Cholinesterase [1]) [nM] | solubility thermodynamic (physchem) [µg/mL] | inhibition (Acetylcholinesterase [3]) [%] | IC50 (Acetylcholinesterase [5]) [nM] | other results
CCN(CC)C(=O)c1ccc2c(c1)nc(Cc1ccc(OC(=O)N3CCCC3)cc1)n2CCC(C)C | 139 | 3.9 (≈ 7.95 µM) | 16 |  | Activity (Cannabinoid receptor 2 [2]): < 10%
CCCCCCCNC(=O)Oc1ccc(Cc2nc3cc(C(=O)Nc4ccccc4)ccc3n2CCC(C)C)cc1 | 15.5 |  | 49 |  | solubility [4]: Insoluble
CCCCCCCNC(=O)Oc1ccc(Cc2nc3cc(C(=O)N(CC)CC)ccc3n2CCC(C)C)cc1 | 13.2 | < 1 |  | 175 | Activity (Cannabinoid receptor 2 [2]): 33%
CCN(CC)C(=O)c1ccc2c(c1)nc(Cc1ccc(OC(=O)N3CCC3)cc1)n2CCC(C)C |  | 7.2 (≈ 15.1 µM) |  | 631 | IC50 (Cannabinoid receptor 2 [6]): 5010 nM; Activity (Mus musculus [7]): Active; Activity [8]: Non-Toxic; K (Cholinesterase [9]): 0.74 h⁻¹; T1/2 (Cholinesterase [10]): 56.3 min; K (Cholinesterase [11]): 3 µM; Activity (Mus musculus [12]): Active; K (Cholinesterase [13]): 8.9 min⁻¹
CCCCCCCNC(=O)Oc1ccc2c(c1)CN1CCc3ccccc3C1N2C (stereo unspecified) |  | < 1 | 39 |  | 
CCCCCCCNC(=O)Oc1ccc(Cc2nc3cc(C(=O)N(CC)CC)ccc3n2CCCCN2CCCCC2)cc1 | 2410 | 67 (≈ 111 µM) |  | 2150 | 
CCN(CC)C(=O)c1ccc2c(c1)nc(Cc1ccc(OC(=O)NCCCCCCN3CCc4ccccc4C3)cc1)n2CCC(C)C | 76.5 |  |  | 9520 | solubility [4]: Insoluble
CCCCCCCNC(=O)Oc1ccc(Cc2nc3cc(C(=O)N4CCCCC4)ccc3n2CCC(C)C)cc1 | 30.6 | < 1 |  | 58 | 
CCN(CC)C(=O)c1ccc2c(c1)nc(Cc1ccc(O)cc1)n2CCC(C)C |  |  |  |  | Activity [14]: Non-Toxic
CCCCCCCNC(=O)Oc1ccc(Cc2nc3cc(C(=O)NCCC(C)C)ccc3n2CCC(C)C)cc1 | 3.7 | < 1 | 55 |  | 

From ChEMBL document CHEMBL5108043, “Novel benzimidazole-based pseudo-irreversible butyrylcholinesterase inhibitors with neuroprotective activity in an Alzheimer's disease mouse model” (RSC Med Chem, 2022)
